This assay has as its system CD8+ T cells. Put plainly: In vitro priming of CD8+ T cells with aAPCs (pHLA/anti-CD28) and pHLA multimer staining. The assay is classed as cell-based, human. The method, then:
To perform in vitro stimulations by artificial antigen-presenting cells (aAPCs) loaded with peptide-HLA complexes (pHLA) and anti-CD28 antibody, the inventors first isolated CD8+ T cells via positive selection using CD8 microbeads (Miltenyi Biotec, Bergisch-Gladbach, Germany) from fresh HLA-matched leukapheresis products of healthy donors obtained from the University clinics Mannheim, Germany, after informed consent.
PBMCs and isolated CD8+ lymphocytes were incubated in T cell medium (TCM) until use consisting of RPMI-Glutamax (Thermo Fisher Scientific, Waltham, USA) supplemented with 10% heat-inactivated human AB serum (CC Pro, Oberdorla, Germany), 100 U/ml Penicillin/100 μg/ml Streptomycin (Biozym, Hessisch Oldendorf, Germany), 1 mM sodium pyruvate (CC Pro, Oberdorla, Germany) and 20 μg/ml Gentamycin (Biozym, Hessisch Oldendorf, Germany). 2.5 ng/ml IL-7 (PromoCell, Heidelberg, Germany) and 10 U/ml IL-2 (Novartis Pharma, Nürnberg, Germany) were also added to the TCM at this step.
The purified co-stimulatory mouse IgG2a anti human CD28 Ab 9.3 (Jung et al., 1987) was chemically biotinylated using sulfo-N-hydroxysuccinimidobiotin as recommended by the manufacturer (Perbio, Bonn, Germany). Beads used were 5.6 μm diameter streptavidin coated polystyrene particles (Bangs Laboratories, Illinois, USA).
800.000 beads/200 μl were coated in 96-well plates in the presence of up to four different biotinylated pHLA complexes (total amount 50 ng/well), washed and 600 ng biotinylated anti-CD28 were added subsequently in a volume of 200 μl/well.
Stimulations were initiated in 96-well plates by co-incubating 1×10^6 CD8+ T cells with 2×10^5 washed aAPCs in 200 μl TCM supplemented with 5 ng/ml IL-12 (PromoCell) for 3 days at 37° C. Half of the medium was then exchanged by fresh TCM supplemented with 80 U/ml IL-2 and incubation was continued for 4 days at 37° C. This stimulation cycle was performed for a total of three times. […]
For the pHLA multimer readout using up to eight different pHLA molecules per condition, a two-dimensional combinatorial coding approach was used as previously described (Andersen et al., 2012a; Andersen et al., 2012b) with minor modifications encompassing coupling to 5 different fluorochromes.
Finally, multimeric analyses were performed by staining the cells with Live/dead near IR dye (Thermo Fisher Scientific, Waltham, USA), CD8-FITC antibody clone SK1 (BD, Heidelberg, Germany) and fluorescent pHLA multimers. […] Peptide-specific cells were calculated as percentage of total CD8+ cells. […] In vitro priming of specific multimer+CD8+ lymphocytes was detected by comparing to negative control stimulations.

Regarding KILGFVF(X)V [FLUM-003], the “Presence of peptide specific cells by multimer staining (standard refolded multimers)” value (after stimulation with A*02:01_FLUM-003×MLA-001, FIG. 3 C+D) is given as “confirmed the presence”. Further, the “Detection of conditional ligand specific cells by multimer staining with EC monomers from the same UV monomer” value (priming with HLA-A*02_FLUM-003×CMV-001, FIG. 6 Plate B, stimulation position 1 and 2) is “FLUM-003 specific cells were stimulated and detected”.

For RL(X)VGSIPR [HNRNPR-002], the “UV peptide-specific T cell populations (multimer+ cells among CD8+ cells)” value (stimulated with pHLA obtained after UV exchange A*03:01_HNRNPR-002×HADV-014 (residual UV monomer), three cycles, FIG. 5 B) is 6.7 % of CD8+ cells.

Turning to SARPPL(X)SV [MUDENG-002], the “UV peptide-specific T cell populations (multimer+ cells among CD8+ cells)” value (stimulated with standard refolded pHLA B*07:02_MUDENG-002, three cycles of stimulation, FIG. 5 A) was 2.4 % of CD8+ cells.

For the origin of these results see patent publication US20240358831A1, “SELECTION OF IMMUNE CELLS USING PEPTIDE MHC COMPLEXES GENERATED BY CONDITIONAL LIGAND EXCHANGE” (IMMATICS US, INC., priority 2021, published 2024).
